{"source": "patent US8491897B2", "about": "“Treatment of neuropathic pain using anti-thrombospondin antibodies” (The Board of Trustees of the Leland Stanford Junior …, priority 2007, dated 2013)", "key": {"RGCs [1]": {"system": "RGCs", "experiment": "Inhibition of TSP-, astrocyte/ACM- or Hevin-induced synapse formation in RGC cultures", "assay_type": "cell-based, rat", "protocol": "RGCs were purified by sequential immunopanning to greater than 99.5% purity from P5 Sprague-Dawley rats (Simonsen Labs, Gilroy, Calif.), as previously described (Barres et. al. (1988) Neuron 9, 791). Approximately 30,000 RGCs were cultured per well in 24-well plates (Falcon) on glass (Assistant) or Aclar 22C (Allied Signal) coverslips coated with poly-D-lysine (10 μg/ml) followed by laminin (2 μg/ml). RGCs were cultured in 600 μl of serum-free medium, modified from Bottenstein and Sato (1979), containing Neurobasal (Gibco), bovine serum albumin, selenium, putrescine, triiodo-thyronine, transferrin, progesterone, pyruvate (1 mM), glutamine (2 mM), CNTF (10 ng/ml), BDNF (50 ng/ml), insulin (5 μg/ml), and forskolin (10 μM). Recombinant human BDNF and CNTF were generously provided by Regeneron Pharmaceuticals.\nPurified human platelet TSP1 was from either Sigma or Haematologic Technologies with similar results. Recombinant TSP2 was purified from serum-free medium conditioned by baculovirus-infected insect cells expressing mouse TSP2. Since purified TSP1 is readily available, we used this as the source of TSP in our experiments unless otherwise stated TSPs were used at a concentration of 5 μg/ml unless otherwise specified. RCGs were cultured for 4 days to allow robust process outgrowth and then cultured with TSPs for an additional 6 days. All other reagents were obtained from Sigma.\nFor preparation of ACM, confluent cultures of astrocytes in 10 cm dishes were washed 3× in PBS and fed with 10 mls RGC medium (without CNTF, BDNF or forskolin). ACM was harvested after 4-6 days of conditioning, filtered through a 0.2 μm syringe filter and concentrated 10× through a 5 KD molecular weight cut-off centrifuge concentrator (Millipore), unless otherwise indicated. ACM was used at a final concentration of 5× unless otherwise indicated. RCGs were cultured for 4 days to allow robust process outgrowth and then cultured with ACM or an astrocyte-feeding layer for an additional 6 days.\nFor synapse quantification, cultures were fixed for 7 min in 4% paraformaldehyde (PFA), washed 3× in phosphate buffered saline (PBS) and blocked in 100 μL of blocking buffer (50% Antibody Buffer (0.5% bovine serum albumin, 0.5% Triton X-100, 30 mM NaPO4, 750 mM NaCl, 5% normal goat serum, and 0.4% NaN3, pH 7.4), 50% goat serum (NGS), 0.1% Triton-X) for 30 min. After blocking, cover slips were washed 3× in PBS and 100 μL of primary antibody solution was added to each cover slip, consisting of rabbit anti-synaptotagmin (cytosolic domain, Synaptic Systems) and mouse anti-PSD-95 (6G6-1C9 clone, Affinity Bio Reagents) diluted 1:500 in antibody buffer. Coverslips were incubated overnight at 4° C., washed 3× in PBS, and incubated with 100 μL of secondary antibody solution containing Alexa-594 conjugated goat anti-rabbit and Alexa-488 conjugated goat anti-mouse (Molecular Probes) diluted 1:1000 in antibody buffer. Following incubation for 2 h at room temperature, coverslips were washed five times in PBS and mounted in Vectashield mounting medium with DAPI (Vector Laboratories Inc) on glass slides (VWR Scientific). For presynaptic activity assay, rabbit synaptotagmin antiserum was generated by immunization with a peptide corresponding to the N-terminal luminal portion of synaptotagmin. This serum was added at 1:500 to live cultures and incubated for 6 hours. Cells were then washed 3× in DPSB, fixed and stained as above, except for the omission of synaptotagmin antibody from the primary antibody solution.\nMounted coverslips were imaged using Nikon Diaphot and Eclipse epifluorescence microscopes (Nikon). Healthy cells that were at least 2 cell diameters from their nearest neighbor were identified and selected at random by eye using DAPI fluorescence. 8-bit digital images of the fluorescence emission at both 594 nm and 488 nm were recorded for each selected cell using a cooled monochrome CCD camera and SPOT image capture software (Diagnostic Instruments, Inc). […]"}, "RGCs [2]": {"system": "RGCs", "settings": "culture media containing GBP"}}, "note": "“Also recorded” adds a separate entry of the source."}
{"compound": "NCC1(CC(=O)O)CCCCC1", "note": "[Gabapentin, 1-(aminomethyl)cyclohexaneacetic acid]", "values": [{"measurement": "effect on SD2-induced synapse formation", "setting": "RGCs [1]", "result": "completely inhibited synapse formation; also recorded: inhibited TSP induced synapse formation; also recorded: blocks TSPs synaptogenic effect; also recorded: blocks the synaptogenic activity of SD2"}, {"measurement": "effect on SD2-induced synapses", "setting": "RGCs [1]", "result": "synapse formation was not affected; also recorded: does not decrease synapse numbers"}, {"measurement": "effect on already formed synapses (synapse number)", "setting": "RGCs [1]", "result": "did not decreased the synapse number"}, {"measurement": "effect on synapse formation induced by Hevin", "setting": "RGCs [1]", "result": "does not inhibit the synapse formation; also recorded: did not affect"}, {"measurement": "effect on synaptogenic effect of TSP2 EGF-like domains", "setting": "RGCs [1]", "result": "diminished its synaptogenic effect"}, {"measurement": "effect on TSP and astrocyte-induced synapse formation", "setting": "RGCs [1]; 32 μM", "result": "strongly inhibited both TSP and astrocyte-induced synapse formation"}, {"measurement": "effect on synapse formation induced by TSP1 or TSP2 EGF-like domains", "setting": "RGCs [1]; 32 μM", "result": "blocked the synaptogenic effect; also recorded: reduces the number of synapses formed by RGCs down to background levels"}, {"measurement": "effect on synaptogenic effect of astrocyte conditioned media (ACM)", "setting": "RGCs [1]; 32 μM", "result": "diminished the synaptogenic effect of both rat and mouse ACM; also recorded: able to block all of ACMs synaptogenic activity"}, {"measurement": "RGC survival", "setting": "RGCs [2]", "result": "66.5±4.1", "unit": "%"}]}
